{"source": "patent US4041076A", "about": "“Immunoassay for pharmacologically active phenethylamines” (Hoffmann-La Roche Inc., priority 1976, dated 1977)", "key": {"[1]": {"test_system": "amphetamine antibody (pooled antisera)", "experiment": "Radioimmunoassay for amphetamine (displacement of 125I-labeled amphetamine analog from antibody)", "assay_type": "binding, goats", "settings": "for Cross-reactivity: concentration of amphetamine equivalent in the assay to 10 μg/ml. of the test drug: pooled antisera selected for low cross-reactivity; for Relative Reactivity, Radioimmunoassay: cross-reactivity expressed as relative reactivity"}, "[2]": {"settings": "cross-reactivity expressed as relative reactivity; Braitin and Sunshine 1973; cited from earlier work"}, "[3]": {"settings": "cross-reactivity expressed as relative reactivity; Braitin and Sunshine 1973; cited from earlier work", "remark": "listed apart in the source"}}}
{"smiles": "NCCc1ccc(O)cc1", "note": "[Tyramine]", "values": [{"measurement": "Cross-reactivity: concentration of amphetamine equivalent in the assay to 10 μg/ml. of the test drug", "setting": "[1]; test drug at 10 μg/ml", "result": 0.17, "unit": "µg/mL"}]}
{"smiles": "CNC(C)CC1CCCC1", "note": "(centres unmarked) [Cyclopentamine]", "values": [{"measurement": "Relative Reactivity, EMIT", "setting": "[2]", "result": 0.3}, {"measurement": "Relative Reactivity, FRAT", "setting": "[3]", "result": 0.2}, {"measurement": "Relative Reactivity, Radioimmunoassay", "setting": "[1]", "result": 0.02}]}
{"smiles": "CNC(C)(C)Cc1ccccc1", "note": "[Mephentermine]", "values": [{"measurement": "Relative Reactivity, EMIT", "setting": "[2]", "result": 0.6}]}
{"smiles": "COc1ccc2c(c1)C13CCCCC1C(C2)N(C)CC3", "note": "(single isomer, unassigned) [Dextromethorphan]", "values": [{"measurement": "Cross-reactivity: concentration of amphetamine equivalent in the assay to 10 μg/ml. of the test drug", "setting": "[1]; test drug at 10 μg/ml", "result": 0.003, "unit": "µg/mL"}]}
{"smiles": "CC(C)NCC(O)c1ccc(O)c(O)c1", "note": "(centres unmarked) [Isoproterenol]", "values": [{"measurement": "Cross-reactivity: concentration of amphetamine equivalent in the assay to 10 μg/ml. of the test drug", "setting": "[1]; test drug at 10 μg/ml", "result": 0, "unit": "µg/mL"}]}
{"smiles": "CC(N)C(O)c1ccccc1", "note": "(centres unmarked) [Phenylpropanolamine]", "values": [{"measurement": "Cross-reactivity: concentration of amphetamine equivalent in the assay to 10 μg/ml. of the test drug", "setting": "[1]; test drug at 10 μg/ml", "result": 0.17, "unit": "µg/mL"}]}
{"smiles": "CNC(C)CC1CCCCC1", "note": "(centres unmarked) [Propylhexedrine]", "values": [{"measurement": "Relative Reactivity, FRAT", "setting": "[3]", "result": 0.5}, {"measurement": "Relative Reactivity, Radioimmunoassay", "setting": "[1]", "result": 0.03}, {"measurement": "Cross-reactivity: concentration of amphetamine equivalent in the assay to 10 μg/ml. of the test drug", "setting": "[1]; test drug at 10 μg/ml", "result": 0.3, "unit": "µg/mL"}]}
{"smiles": "CC(C)(N)Cc1ccccc1", "note": "[Phentermine]", "values": [{"measurement": "Relative Reactivity, FRAT", "setting": "[3]", "result": 1.0}, {"measurement": "Relative Reactivity, Radioimmunoassay", "setting": "[1]", "result": 0.07}, {"measurement": "Amphetamine equivalent when tested with 10 μg/ml. of test drug, individual sera", "setting": "[1]; individual sera (not the selected pool), test drug at 10 μg/ml", "result": "2 to 5", "unit": "µg/mL"}, {"measurement": "Cross-reactivity: concentration of amphetamine equivalent in the assay to 10 μg/ml. of the test drug", "setting": "[1]; test drug at 10 μg/ml", "result": 0.7, "unit": "µg/mL"}]}
{"smiles": "CC(CCc1ccccc1)NC(C)C(O)c1ccc(O)cc1", "note": "(centres unmarked) [Nylidrin]", "values": [{"measurement": "Relative Reactivity, FRAT", "setting": "[3]", "result": 0.1}]}
{"smiles": "NCCc1ccc(O)c(O)c1", "note": "[Dopamine]", "values": [{"measurement": "Cross-reactivity: concentration of amphetamine equivalent in the assay to 10 μg/ml. of the test drug", "setting": "[1]; test drug at 10 μg/ml", "result": 0.015, "unit": "µg/mL"}]}
{"smiles": "CC(COc1ccccc1)NC(C)C(O)c1ccc(O)cc1", "note": "(centres unmarked) [Isoxsuprine]", "values": [{"measurement": "Relative Reactivity, EMIT", "setting": "[2]", "result": 0.2}, {"measurement": "Relative Reactivity, FRAT", "setting": "[3]", "result": 0.05}, {"measurement": "Relative Reactivity, Radioimmunoassay", "setting": "[1]", "result": 0}]}
{"smiles": "CC1NCCOC1c1ccccc1", "note": "(centres unmarked) [Phenmetrazine]", "values": [{"measurement": "Cross-reactivity: concentration of amphetamine equivalent in the assay to 10 μg/ml. of the test drug", "setting": "[1]; test drug at 10 μg/ml", "result": 0.06, "unit": "µg/mL"}]}
{"smiles": "CN[C@@H](C)[C@H](O)c1ccccc1", "note": "[Ephedrine (1-form), Ephedrine]", "values": [{"measurement": "Relative Reactivity, EMIT", "setting": "[2]", "result": 0.2}, {"measurement": "Relative Reactivity, FRAT", "setting": "[3]", "result": 0.15}, {"measurement": "Relative Reactivity, Radioimmunoassay", "setting": "[1]", "result": 0.0003}, {"measurement": "Cross-reactivity: concentration of amphetamine equivalent in the assay to 10 μg/ml. of the test drug", "setting": "[1]; test drug at 10 μg/ml", "result": 0.003, "unit": "µg/mL"}]}
{"smiles": "NCC(O)c1ccc(O)c(O)c1", "note": "(centres unmarked) [Norepinephrine]", "values": [{"measurement": "Cross-reactivity: concentration of amphetamine equivalent in the assay to 10 μg/ml. of the test drug", "setting": "[1]; test drug at 10 μg/ml", "result": 0.003, "unit": "µg/mL"}]}
